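1) Cells in 96-well plates. 2) Compound, 48 h, 5 concentrations. 3) Linear interpolation between surrounding doses. 4) Unreached endpoint = highest concentration. The concentration for 50% growth inhibition is given as GI50. TGI denotes the concentration required for complete inhibition of growth.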
Experiments:
Assay in all cases: DTP human tumour cell line panel, 48 h
SF-295 CNS = system: SF-295 CNS
PC-3 prostate = system: PC-3 prostate
ACHN renal = system: ACHN renal
CAKI-1 renal = system: CAKI-1 renal
HT29 colon = system: HT29 colon
NCI-H23 lung = system: NCI-H23 lung
OVCAR-4 ovarian = system: OVCAR-4 ovarian
OVCAR-8 ovarian = system: OVCAR-8 ovarian
LOX IMVI melanoma = system: LOX IMVI melanoma
MALME-3M melanoma = system: MALME-3M melanoma

SMILES	GI50 (SF-295 CNS)	TGI (SF-295 CNS)	GI50 (PC-3 prostate)	TGI (PC-3 prostate)	GI50 (ACHN renal)	TGI (ACHN renal)	GI50 (CAKI-1 renal)	TGI (CAKI-1 renal)	GI50 (HT29 colon)	TGI (HT29 colon)	GI50 (NCI-H23 lung)	TGI (NCI-H23 lung)	GI50 (OVCAR-4 ovarian)	TGI (OVCAR-4 ovarian)	GI50 (OVCAR-8 ovarian)	TGI (OVCAR-8 ovarian)	GI50 (LOX IMVI melanoma)	TGI (LOX IMVI melanoma)	GI50 (MALME-3M melanoma)	TGI (MALME-3M melanoma)
O=C(Nc1cccc2[nH]c(C(F)(F)F)nc12)c1cc(Cl)ccc1Cl	2.23 µM	6.55 µM	3.1 µM	92.9 µM	2.88 µM	16.6 µM	2.7 µM	31.3 µM	3.62 µM	14.7 µM	2.81 µM	7.78 µM	2.59 µM	> 100 µM	3.68 µM	31.6 µM	2.97 µM	10 µM	2.85 µM	8.61 µM
C=CC(C)(C)n1cc(C2=C(O)C(=O)C(c3cn(C(C)(C)C=C)c4ccccc34)=C(O)C2=O)c2ccccc21	–	12.8 µM	–	7.13 µM	–	12.9 µM	–	6.56 µM	–	16.2 µM	–	7.83 µM	–	6.92 µM	–	13.6 µM	–	11.2 µM	–	11.1 µM
COc1ccc2c(c1)C(=O)/C(=C/c1cccc(OCC(=O)Nc3nc(C)c(C)s3)c1)O2	12.7 µM	26.3 µM	0.0417 µM	0.226 µM	0.139 µM	0.779 µM	0.271 µM	1.16 µM	0.0302 µM	0.111 µM	0.0547 µM	0.715 µM	2.03 µM	6.91 µM	0.647 µM	12.9 µM	< 0.0127 µM	< 0.0178 µM	0.322 µM	1.03 µM
FC(F)(F)c1ccc(-c2nn3ncccc3c2-c2ccnc(Nc3ccc4c(c3)OCCO4)n2)cc1	6.91 µM	> 25 µM	7.32 µM	> 25 µM	14.7 µM	> 25 µM	4.86 µM	> 19.2 µM	6.03 µM	> 25 µM	14.7 µM	> 25 µM	10.2 µM	> 25 µM	13.2 µM	> 25 µM	5.16 µM	15.3 µM	7.29 µM	> 25 µM
O=C(NN1C(=O)CSC1c1cccc(Cl)c1)C(O)c1ccccc1 (centres undefined)	22.4 µM	> 100 µM	60.6 µM	> 100 µM	67.4 µM	> 100 µM	90.3 µM	> 100 µM	> 100 µM	> 100 µM	56.3 µM	> 100 µM	66.7 µM	> 100 µM	83.5 µM	> 100 µM	> 100 µM	> 100 µM	> 100 µM	> 100 µM
Cc1ccc(S(=O)(=O)c2nc(-c3ccccc3)oc2S(C)(=O)=O)cc1	12.2 µM	24.6 µM	10.4 µM	23.1 µM	1.76 µM	3.13 µM	1.8 µM	3.21 µM	2.81 µM	6.6 µM	6.73 µM	22.6 µM	1.92 µM	3.72 µM	1.96 µM	3.8 µM	1.59 µM	2.99 µM	1.9 µM	3.68 µM
CC(=O)c1cccc(NC(=O)C(=O)c2c(O)c3ccccc3oc2=O)c1	–	> 100 µM	–	> 100 µM	–	> 100 µM	–	> 100 µM	–	> 100 µM	–	> 100 µM	–	> 100 µM	–	> 100 µM	–	> 100 µM	–	> 100 µM
CN(Cc1ccc(F)cc1)c1ccc(CO)c(Cl)c1	3.38 µM	> 62.3 µM	20.3 µM	> 68.3 µM	28.9 µM	> 100 µM	2.49 µM	45.8 µM	8.38 µM	67.1 µM	11.6 µM	> 72.7 µM	2.22 µM	19.7 µM	20.7 µM	> 100 µM	22.9 µM	> 68.9 µM	24.5 µM	71.9 µM
CCOC(=O)c1ccc(NC(=O)NC2=NCCS2)cc1	0.619 µM	6.13 µM	0.451 µM	> 100 µM	45.9 µM	> 100 µM	1.39 µM	> 100 µM	> 93.5 µM	> 100 µM	3.61 µM	> 100 µM	56.1 µM	> 100 µM	1.98 µM	> 100 µM	39.9 µM	> 100 µM	0.465 µM	> 100 µM
Cn1c(=O)n(C)c2cc(CNCCNc3ccnc4cc(Cl)ccc34)ccc21	15.3 µM	40.1 µM	34.6 µM	> 100 µM	25.4 µM	93.4 µM	36.3 µM	> 100 µM	21.1 µM	> 100 µM	48.8 µM	> 100 µM	26.1 µM	> 100 µM	38.2 µM	> 100 µM	14.3 µM	30.1 µM	16.6 µM	32.9 µM
O=C1c2cccnc2-c2nc(-c3cccnc3)cc3c2c1nc1ccccc13	1.92 µM	3.71 µM	4.4 µM	26.7 µM	1.55 µM	2.88 µM	6.96 µM	22.8 µM	2.52 µM	–	3.7 µM	20.7 µM	5.07 µM	19.8 µM	1.31 µM	3.96 µM	2.8 µM	> 25.1 µM	17.6 µM	32.4 µM
C=C1C(=O)O[C@H]2[C@H]1CC/C(Cn1cc(-c3ccc(N)cc3)nn1)=C\CC[C@@]1(C)O[C@@H]21	12.1 µM	26.5 µM	10.1 µM	24.6 µM	2.65 µM	12 µM	1.77 µM	7.03 µM	2.14 µM	5.47 µM	2.49 µM	7.72 µM	4.9 µM	18.6 µM	3.04 µM	12.4 µM	1.51 µM	2.88 µM	2.18 µM	5.42 µM
O=[N+]([O-])c1cc([As](Br)c2ccc(O)c([N+](=O)[O-])c2)ccc1O	–	3.61 µM	–	3.64 µM	–	3.77 µM	–	3.42 µM	–	25 µM	–	4.37 µM	–	3.28 µM	–	3.21 µM	–	3.96 µM	–	2.38 µM
CCCC(=O)N[C@H]1CCc2cc(OC)c(OC)c(OC)c2-c2ccc(SC)c(=O)cc21	–	< 0.01 µM	–	> 100 µM	–	> 57.1 µM	–	14.1 µM	–	0.724 µM	–	2.18 µM	–	> 100 µM	–	> 15.8 µM	–	> 100 µM	–	> 100 µM

Reference: PubChem BioAssay (NCI)
